Test: Viscosity (ASTM D445)
Format: physicochemical
Excerpt: The viscosity may be determined using the protocol in ASTM D445, and for example ASTM D445FL1 for low temperature measurements.

Structure (SMILES)	38 C. Viscosity (cP)	Room Temp (25 C.) Viscosity (cP)	−54 C. Viscosity (cP)
CCCCCCCCCCP(=O)(OCC)OCC [DiEthyl Decane Phosphonate (AP28), DiEthyl Decane Phosphonate]	4.89 ± 0.01 cP	7.02 ± 0.04 cP	Frozen <3 hr
CCCCCCCCCCP(=O)(OCCCC)OCCCC [DiButyl Decane Phosphonate (AP32), DiButyl Decane Phosphonate]	4.91 ± 0.01 cP	6.97 ± 001 cP	706.2 ± 5.4 cP

From patent US12227713B2, “Polysiloxane hydraulic fluids” (THE BOEING COMPANY, priority 2016, dated 2025)
